Assay results from PubChem BioAssay AID1259407 (Chemical Carcinogenesis Research Information System (CCRIS), 2018).
Activity calls are given as the source filed them. How the calls were made is not given here.

Tested on: CCRIS mutagenicity, Ames/micronucleus/aberration tests
Test: CCRIS mutagenicity studies
[1] = Test System: AMES SALMONELLA TYPHIMURIUM, Strain/Indicator: TA98, Metabolic Activation: NONE, Method: STANDARD PLATE
[2] = Test System: AMES SALMONELLA TYPHIMURIUM, Strain/Indicator: TA98, Metabolic Activation: RAT, LIVER, S-9, AROCLOR 1254, Method: STANDARD PLATE
[3] = Test System: AMES SALMONELLA TYPHIMURIUM, Strain/Indicator: TA100, Metabolic Activation: NONE, Method: STANDARD PLATE
[4] = Test System: AMES SALMONELLA TYPHIMURIUM, Strain/Indicator: TA100, Metabolic Activation: RAT, LIVER, S-9, AROCLOR 1254, Method: STANDARD PLATE
[5] = Test System: AMES SALMONELLA TYPHIMURIUM, Strain/Indicator: TA1535, Metabolic Activation: NONE, Method: STANDARD PLATE
[6] = Test System: AMES SALMONELLA TYPHIMURIUM, Strain/Indicator: TA1535, Metabolic Activation: RAT, LIVER, S-9, AROCLOR 1254, Method: STANDARD PLATE

Nc1cccc2nc3ccccc3cc12
mutagenic call (Test System: AMES SALMONELLA TYPHIMURIUM, Strain/Indicator: TA1535, Metabolic Activation: NONE, Method: PREINCUBATION): inactive; negative | mutagenic call (Test System: AMES SALMONELLA TYPHIMURIUM, Strain/Indicator: TA1535, Metabolic Activation: RAT, LIVER, S-9, TETRACHLOROBIPHENYL, Method: PREINCUBATION): inactive; negative | mutagenic call (Test System: AMES SALMONELLA TYPHIMURIUM, Strain/Indicator: TA1537, Metabolic Activation: NONE, Method: PREINCUBATION): active; positive | mutagenic call (Test System: AMES SALMONELLA TYPHIMURIUM, Strain/Indicator: TA1537, Metabolic Activation: RAT, LIVER, S-9, TETRACHLOROBIPHENYL, Method: PREINCUBATION): active; positive | mutagenic call (Test System: AMES SALMONELLA TYPHIMURIUM, Strain/Indicator: TA1538, Metabolic Activation: NONE, Method: PREINCUBATION): inactive; negative | mutagenic call (Test System: AMES SALMONELLA TYPHIMURIUM, Strain/Indicator: TA1538, Metabolic Activation: RAT, LIVER, S-9, TETRACHLOROBIPHENYL, Method: PREINCUBATION): active; positive | mutagenic call (Test System: AMES SALMONELLA TYPHIMURIUM, Strain/Indicator: TA1977, Metabolic Activation: NONE, Method: PREINCUBATION): active; positive | mutagenic call (Test System: AMES SALMONELLA TYPHIMURIUM, Strain/Indicator: TA1977, Metabolic Activation: RAT, LIVER, S-9, TETRACHLOROBIPHENYL, Method: PREINCUBATION): active; positive | mutagenic call (Test System: AMES SALMONELLA TYPHIMURIUM, Strain/Indicator: TA1978, Metabolic Activation: RAT, LIVER, S-9, TETRACHLOROBIPHENYL, Method: PREINCUBATION): inactive; negative

CCC(C)OC(=O)C=Cc1ccc([N+](=O)[O-])o1 (centres undefined)
mutagenic call (Test System: AMES SALMONELLA TYPHIMURIUM, Strain/Indicator: TA98, Metabolic Activation: NONE, Method: PREINCUBATION): active; positive

Cc1cnc2cc3nc(N)n(C)c3c(C)c2n1
mutagenic call (Test System: AMES SALMONELLA TYPHIMURIUM, Strain/Indicator: TA98, Metabolic Activation: RAT, LIVER, S-9, PCB, Method: PREINCUBATION): active; positive | mutagenic call (Test System: AMES SALMONELLA TYPHIMURIUM, Strain/Indicator: TA98, Metabolic Activation: S-9): active; positive | mutagenic call (Test System: AMES SALMONELLA TYPHIMURIUM, Strain/Indicator: TA98, Metabolic Activation: S-9, Method: PREINCUBATION): active; positive | mutagenic call (Test System: AMES SALMONELLA TYPHIMURIUM, Strain/Indicator: YG1024, Metabolic Activation: RAT, LIVER, S-9, PCB, Method: PREINCUBATION): active; positive | mutagenic call (Test System: AMES SALMONELLA TYPHIMURIUM, Strain/Indicator: YG1024, Metabolic Activation: S-9): active; positive

CC1(S(=O)(=O)O)CC(=O)c2ccccc2C1=O (centres undefined) (tested in a mixture with another compound)
mutagenic call (Test System: AMES SALMONELLA TYPHIMURIUM, Strain/Indicator: TA98, Metabolic Activation: NONE, Method: SPIRAL ASSAY): inactive; negative | mutagenic call [1]: inactive; negative | mutagenic call (Test System: AMES SALMONELLA TYPHIMURIUM, Strain/Indicator: TA98, Metabolic Activation: RAT, LIVER, S-9, AROCLOR 1254, Method: SPIRAL ASSAY): inactive; negative | mutagenic call [2]: active; positive | mutagenic call (Test System: AMES SALMONELLA TYPHIMURIUM, Strain/Indicator: TA100, Metabolic Activation: NONE, Method: SPIRAL ASSAY): inactive; negative | mutagenic call [3]: inactive; negative | mutagenic call (Test System: AMES SALMONELLA TYPHIMURIUM, Strain/Indicator: TA100, Metabolic Activation: RAT, LIVER, S-9, AROCLOR 1254, Method: SPIRAL ASSAY): inactive; negative | mutagenic call [4]: inactive; negative | mutagenic call (Test System: AMES SALMONELLA TYPHIMURIUM, Strain/Indicator: TA1535, Metabolic Activation: NONE, Method: SPIRAL ASSAY): inactive; negative | mutagenic call [5]: inactive; negative | mutagenic call (Test System: AMES SALMONELLA TYPHIMURIUM, Strain/Indicator: TA1535, Metabolic Activation: RAT, LIVER, S-9, AROCLOR 1254, Method: SPIRAL ASSAY): inactive; negative | mutagenic call [6]: inactive; negative | mutagenic call (Test System: AMES SALMONELLA TYPHIMURIUM, Strain/Indicator: TA1537, Metabolic Activation: NONE, Method: SPIRAL ASSAY): inactive; negative | mutagenic call (Test System: AMES SALMONELLA TYPHIMURIUM, Strain/Indicator: TA1537, Metabolic Activation: NONE, Method: STANDARD PLATE): inactive; negative | mutagenic call (Test System: AMES SALMONELLA TYPHIMURIUM, Strain/Indicator: TA1537, Metabolic Activation: RAT, LIVER, S-9, AROCLOR 1254, Method: SPIRAL ASSAY): inactive; negative | mutagenic call (Test System: AMES SALMONELLA TYPHIMURIUM, Strain/Indicator: TA1537, Metabolic Activation: RAT, LIVER, S-9, AROCLOR 1254, Method: STANDARD PLATE): inactive; negative

Nc1ncn([C@@H]2O[C@H](CO)[C@@H](O)[C@H]2O)c(=O)n1
mutagenic call (End Point: IN VITRO CHROMOSOMAL ABERRATIONS, Test System: CHO CELLS (K1), Metabolic Activation: NONE): active; positive | mutagenic call (End Point: IN VITRO CHROMOSOMAL ABERRATIONS, Test System: CHO CELLS (XRS-5), Metabolic Activation: NONE): active; positive | mutagenic call (Test System: AMES SALMONELLA TYPHIMURIUM, Strain/Indicator: TA92, Metabolic Activation: NONE, Method: STANDARD PLATE): active; positive | mutagenic call (Test System: AMES SALMONELLA TYPHIMURIUM, Strain/Indicator: TA98, Metabolic Activation: NONE, Method: FLUCTUATION (MICROTITER)): active; positive | mutagenic call [3]: active; positive | mutagenic call (Test System: AMES SALMONELLA TYPHIMURIUM, Strain/Indicator: TA102, Metabolic Activation: NONE, Method: STANDARD PLATE): active; positive | mutagenic call (Test System: AMES SALMONELLA TYPHIMURIUM, Strain/Indicator: TA104, Metabolic Activation: NONE, Method: STANDARD PLATE): active; positive | mutagenic call [5]: active; positive | mutagenic call [6]: active; positive | mutagenic call (Test System: AMES SALMONELLA TYPHIMURIUM, Strain/Indicator: TA1537, Metabolic Activation: NONE, Method: FLUCTUATION (MICROTITER)): inactive; negative | mutagenic call (Test System: AMES SALMONELLA TYPHIMURIUM, Strain/Indicator: TA2638, Metabolic Activation: NONE, Method: STANDARD PLATE): active; positive | mutagenic call (Test System: AMES SALMONELLA TYPHIMURIUM, Strain/Indicator: TA2640, Metabolic Activation: NONE, Method: STANDARD PLATE): inactive; negative | mutagenic call (Test System: AMES SALMONELLA TYPHIMURIUM, Strain/Indicator: TA7001, Metabolic Activation: NONE, Method: FLUCTUATION (MICROTITER)): inactive; negative | mutagenic call (Test System: AMES SALMONELLA TYPHIMURIUM, Strain/Indicator: TA7002, Metabolic Activation: NONE, Method: FLUCTUATION (MICROTITER)): inactive; negative | mutagenic call (Test System: AMES SALMONELLA TYPHIMURIUM, Strain/Indicator: TA7003, Metabolic Activation: NONE, Method: FLUCTUATION (MICROTITER)): inactive; negative | mutagenic call (Test System: AMES SALMONELLA TYPHIMURIUM, Strain/Indicator: TA7004, Metabolic Activation: NONE, Method: FLUCTUATION (MICROTITER)): active; positive | mutagenic call (Test System: AMES SALMONELLA TYPHIMURIUM, Strain/Indicator: TA7005, Metabolic Activation: NONE, Method: FLUCTUATION (MICROTITER)): inactive; negative | mutagenic call (Test System: AMES SALMONELLA TYPHIMURIUM, Strain/Indicator: TA7006, Metabolic Activation: NONE, Method: FLUCTUATION (MICROTITER)): active; positive | mutagenic call (Test System: CHINESE HAMSTER OVARY, Strain/Indicator: CHO-AS52/6-THIOGUANINE, Metabolic Activation: NONE): active; positive | mutagenic call (Test System: MOUSE LYMPHOMA, Strain/Indicator: L5178Y (TK+/TK-), Metabolic Activation: RAT, LIVER, HEAT-DENATURED S-9, Method: SUSPENSION/PLATE): active; positive | mutagenic call (Test System: MOUSE LYMPHOMA, Strain/Indicator: L5178Y (TK+/TK-), Metabolic Activation: RAT, LIVER, S-9, AROCLOR 1254, Method: SUSPENSION/PLATE): active; positive. reevaluation of results: inconclusive | mutagenic call (Test System: MOUSE LYMPHOMA, Strain/Indicator: L5178Y (TK+/TK-), Metabolic Activation: RAT, LIVER, S-9, Method: SUSPENSION/PLATE): active; positive

Nc1cc(Cl)cc(Cl)c1
mutagenic call (End Point: In vitro chromosomal aberrations, Test System: Chinese hamster lung (CHL/IU) cells, Metabolic Activation: Rat, Liver, S9, Phenobarbital and 5,6-benzoflavone): active; positive (structural changes and ploidy) | mutagenic call [1]: inactive; negative | mutagenic call [2]: inactive; negative | mutagenic call [3]: inactive; negative | mutagenic call [4]: inactive; negative | mutagenic call (Test System: UDS RODENT HEPATOCYTES, Strain/Indicator: THY INCORP (NON-S-PHASE), Metabolic Activation: NONE, Method: AUTORADIOGRAPHY): inactive; negative
